Experimental data reported in patent US20250212889A1, “COMPOSITION CONTAINING BACILLUS AMYLOLIQUEFACIENS STRAIN FOR ENHANCING PLANT DISEASE RESISTANCE AND USE THEREOF” (CJ CHEILJEDANG CORPORATION, priority 2022, published 2025).

Experiments:
Format in all cases: in vivo
soybeans = test: Growth promoting ability, shoot weight of soybeans
Description: (§1) One week after sowing in pots, root zone treatment of each plant was performed using each 5 ml of BTH, valine, […] powder preparation, and the mixture of […] powder preparation and valine. The root zone treatment with BTH, valine, […] powder preparation, and the mixture of […] powder preparation and valine was performed twice at one week intervals, respectively. One week after the last treatment, a shoot of each treatment group was cut and weighed.

cucumbers = test: Growth promoting ability, shoot weight of cucumbers
Description: as §1

Phytophthora sojae [1] = test: Mixed treatment pot experiment, soybean Phytophthora stem and root rot; conditions: soybeans, valine 0.05% in mixed treatment, compared to the untreated group
[2] = system: Pseudomonas syringae pv. lachrymans; test: Mixed treatment pot experiment, cucumber bacterial leaf blight; conditions: cucumbers, valine 0.05% in mixed treatment, compared to the untreated group
Phytophthora sojae [3] = test: Mixed treatment glass greenhouse experiment, soybean Phytophthora stem and root rot; conditions: soybeans, compared to the untreated group
Description: The subject of the experiment was soybeans. Plant preparation, treatment with […] powder preparation and valine, and treatment of soybean Phytophthora stem and root rot were performed in the same manner as Example 7. […] The control value was calculated as follows. [formula]

[4] = system: Pseudomonas syringae pv. tomato DC3000; test: Induced resistance, population of pathogens in Arabidopsis thaliana leaves; conditions: Arabidopsis thaliana leaf disc, root zone treatment, 3 days after Pst inoculation
Description: To this end, Arabidopsis thaliana which is a plant model was used, and Pseudomonas syringae pv. tomato DC3000 (hereinafter, referred to as Pst) causing leaf spot was used as a pathogen. To grow the plant, the surface of seeds of Arabidopsis thaliana was sterilized by immersing the seeds in 3% sodium hypochlorite (NaOCI) for 5 minutes. Thereafter, the seeds were rinsed five times using sterile water and then sown in a pot, and cultured in a plant incubator (12-hour light and 23° C. temperature conditions) for 3 weeks, followed by root zone treatment with each 50 ml of benzothiadiazole (BTH), serenade, N351 strain, valine, and mixture of N351 strain and valine. 7 days after treatment, the pathogen was inoculated and the population of pathogens was examined 0 day and 3 days later. To examine the population of pathogens, the leaves were cut into 1 cm discs using a cork borer and placed in an e-tube containing 1 ml of sterile water and beads. The leaves were ground for 2 minutes at 6000 rpm using a homogenizer (Bertin), and the population of pathogens in the juice was examined.

[5] = system: Pathogenesis-related protein (PR) 1a promoter GUS fusion construct; test: Induced resistance, PR1a promoter GUS expression; conditions: Arabidopsis thaliana leaves, 0 to 3 days after disease treatment
[6] = root zone treatment 5 ml twice, one week after last treatment

SMILES | growth compared to the untreated control group (soybeans) | growth compared to the untreated control group (cucumbers) | control value (Phytophthora sojae [1]) [%] | control value [2] [%] | control value (Phytophthora sojae [3]) [%] | population of pathogens [4] [LogCFU/disc] | GUS activity/expression (PR1a) [5] | shoot weight, average (soybeans; [6]) [g] | growth further promoted compared to the untreated group (soybeans; vs untreated group of 8.2 g) [g] | shoot weight, average (cucumbers; [6]) [g] | growth further promoted compared to the untreated group (cucumbers; vs untreated group of 12.6 g) [g]
CSC(=O)c1cccc2nnsc12 [BTH, benzo (1,2,3)-thiadiazile-7-carbothioic acid S-methyl ester, reference compound] | rather inhibited | growth inhibition |  |  |  |  |  |  |  |  | 
CC(C)[C@H](N)C(=O)O [valine] |  |  | 36 | 38 | 24 | 8 | most strongly induced 1 day after disease treatment, and expression became weaker over time | 9.3 | 1.1 | 14 | 1.4
